The assay concerns rabbit pulmonary artery. The experiment in a line: Antagonism of rabbit pulmonary artery contractions induced by [Lys5 MeLeu9 Nle10]NKA(4-10). Details: species or system rabbit (male, New Zealand albino). To be noted: product incubated for 2 hours; [Lys5 MeLeu9 Nle10]NKA(4-10) as agonist; Krebs solution 37° C. Here is the method:
The in vitro antagonistic activity of the products is determined with respect to rabbit pulmonary artery contractions induced by [Lys^5 MeLeu^9 Nle^10 ]NKA(4-10) according to the technique described by D. Regoli et al., Trends Pharmacol. Sci, 2, 290-295 (1988) and P. D'Orleans-Juste et al., Eur. J. Pharmacol., 125, 37-44 (1985). The pulmonary artery of the rabbit (male, New Zealand albino) is withdrawn; the endothelium is destroyed by introduction into the arterial lumen of a glass rod coated with filter paper, and the artery is then cut into rings and incubated in an isolated-organ tank containing an oxygenated Krebs solution (95% O2; 5% CO2) at 37° C. at a tension of 1 g. After determining the agonistic activity of [Lys^5 MeLeu9Nle^10 ]NKA(4-10) (contractile effect), the product to be studied is incubated for 2 hours in the isolated-organ tank before a further addition of [Lys^5 MeLeu^9 Nle^10 ]NKA(4-10). The percentage inhibition obtained is calculated. The antagonistic activity of a product is expressed in terms of IC^50.
In the above technique, the products studied display an antagonism to rabbit pulmonary artery contractions at the following concentration: […]

SMILES strings stand for the structures.

`COc1ccccc1[C@@]1(O)[C@H](O)CC(c2ccccc2)(c2ccccc2)[C@@H]2CN(C(=O)Cc3c[nH]c4ccccc34)C[C@@H]21` [Example 1] registered a 50% inhibitory concentration (IC50) of 215 nM.

Values taken from patent publication US5631279A, “Perhydroisoindole derivatives, preparation thereof and pharmaceutical compositions containing same” (Rhone-Poulenc Rorer, S.A., priority 1993, dated 1997).
